Test results as given in patent US9133099B2, “Compounds and their salts specific to the PPAR receptors and the EGF receptors and their use in the medical field” (Nogra Pharma Limited, priority 2005, dated 2015).

How the values were obtained:
HT-115 cells = test: Colon cancer cell growth, BrdU incorporation, HT-115 cells; type: cell-based, human; settings: 0.5-10 mM, 48 hours
Experimental: (§1) FIG. 3 and FIG. 4: Effect of the specified substances on the proliferation of human colon carcinoma cell lines (i.e. HT29, HT 115 and DLDI). Cells were treated with increasing concentrations of substances (0.5-10 mM)) for 48 hours and the proliferation was determined by using a colorimetric assay for the measurement of BrdU incorporation. Optical density (OD) was determined at 450 nm using an ELISA reader.
(§2) The following substances (i e 20, 34, 35, 39 and 40) were tested for their ability to modulate colon cancer cell growth. For this purpose, three human colon carcinoma cell lines (i.e. HT-29, HT-115 and DLD-1) were used. These cell types were selected on the basis of the cyclooxigenase-2 (COX-2) expression. Indeed. HT-115 cells express a biologically active COX-2, HT-29 cells express a non-functional COX-2 isoform, and DLD-1 are COX-2-deficient cells. […]
(§3) Cell proliferation was determined by measuring the incorporation of 5-bromo-2′-deoxyuridine (BrdU) into DNA using a commercially available cell proliferation kit (Roche Diagnostics, Monza, Italy). BrdU was added to the cell cultures during the last 6 hours of incubation, and the level of BrdU-positive cells was assessed after 48 h culture by enzyme-linked immunosorbent assay (ELISA). Optical density (OD) was determined at 450 nm using an ELISA reader. […]

HT-29 cells = test: Colon cancer cell growth, BrdU incorporation, HT-29 cells; type: cell-based, human; settings: 0.5-10 mM, 48 hours
Experimental: as §1, §2, §3

DLD-1 cells = test: Colon cancer cell growth, BrdU incorporation, DLD-1 cells; type: cell-based, human; settings: for effect on cell growth (in words) / inhibition at 500 µM / inhibition at 1000 µM / inhibition at 2500 µM / inhibition at 5000 µM / inhibition at 10000 µM: DLD-1 cells, 48 hours; for effect on cell growth (in words): 0.5-10 mM; for inhibition at 500 µM / inhibition at 1000 µM / inhibition at 2500 µM / inhibition at 5000 µM / inhibition at 10000 µM: Homo sapiens, BrdU; for inhibition at 500 µM: 0.5 mM; for inhibition at 1000 µM: 1 mM; for inhibition at 2500 µM: 2.5 mM; for inhibition at 5000 µM: 5 mM; for inhibition at 10000 µM / effect on cell growth at high doses (in words): 10 mM; for effect on cell growth at high doses (in words): differences among groups not statistically significant
Experimental: The following substances (i e 20, 34, 35, 39 and 40) were tested for their ability to modulate colon cancer cell growth. For this purpose, three human colon carcinoma cell lines (i.e. HT-29, HT-115 and DLD-1) were used. These cell types were selected on the basis of the cyclooxigenase-2 (COX-2) expression. Indeed. HT-115 cells express a biologically active COX-2, HT-29 cells express a non-functional COX-2 isoform, and DLD-1 are COX-2-deficient cells.
HT-29 and DLD-1 cells were cultured in McCoy and RPMI1640 media respectively, supplemented with 10% fetal bovine serum (FBS), 1% penicillin/streptomycin (P/S) and […] gentamycin. HT-115 were cultured in DMEM medium supplemented with 15% FBS and 1% P/S. Cells were maintained in a humidified Incubator at 37° C., in the presence of 5% CO2.
For cell growth assays, single-cell suspensions were plated at 2×10^3 cells/well (4×10^3 cells/well for HT115) in 96-well culture dishes in medium containing 0.5% FBS and allowed to adhere. The non-adherent cells were then removed, and fresh medium containing 0.5% FBS was added into each well. Cells were cultured in the presence or absence of the specified substances. Each substance was dissolved as a 25 mM stock solution in culture medium containing 0.5% FBS, and the pH of each stock solution was adjusted to 7.4, if necessary, with NaOH. Substances were used at a final concentration ranging from 0.5 to 10 mM.
Cell proliferation was determined by measuring the incorporation of 5-bromo-2′-deoxyuridine (BrdU) into DNA using a commercially available cell proliferation kit (Roche Diagnostics, Monza, Italy). BrdU was added to the cell cultures during the last 6 hours of incubation, and the level of BrdU-positive cells was assessed after 48 h culture by enzyme-linked immunosorbent assay (ELISA). Optical density (OD) was determined at 450 nm using an ELISA reader. Experiments were performed in triplicate and the results are reported as the mean t standard deviation (SD).
Cells were cultured in the presence or absence of the compounds, and cell growth was then assessed by the colorimetric (BrdU) assay after 48 hours culture.

PPARγ = target: T1, PPARγ (Homo sapiens, UniProt P37231); test: PPARγ transcriptional activity, renilla luciferase/PPRE reporter gene in transfected HT-29 cells; type: cell-based; settings: 24 hours
T1 construct: transient transfections of epithelial cells with the renilla luciferase and PPRE plamids; endogenous in cells; host or cells: HT-29 human colon carcinoma cells
T1 sequence (P37231 1-505): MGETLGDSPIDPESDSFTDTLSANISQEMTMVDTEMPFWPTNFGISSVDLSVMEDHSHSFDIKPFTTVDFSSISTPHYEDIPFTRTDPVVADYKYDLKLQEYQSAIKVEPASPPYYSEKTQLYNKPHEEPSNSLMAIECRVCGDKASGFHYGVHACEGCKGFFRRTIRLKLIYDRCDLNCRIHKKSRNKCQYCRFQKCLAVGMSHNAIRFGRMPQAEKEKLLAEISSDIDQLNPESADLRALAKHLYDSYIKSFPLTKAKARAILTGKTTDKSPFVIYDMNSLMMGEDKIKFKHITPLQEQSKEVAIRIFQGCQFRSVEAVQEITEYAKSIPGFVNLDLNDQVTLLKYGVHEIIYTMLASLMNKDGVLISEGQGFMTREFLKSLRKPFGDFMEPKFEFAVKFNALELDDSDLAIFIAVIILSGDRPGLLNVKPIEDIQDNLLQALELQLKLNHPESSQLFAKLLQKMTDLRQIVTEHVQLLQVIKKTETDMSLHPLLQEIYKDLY
Experimental: Activation of PPARγ results in a cascade of reactions leading to a binding to specific DNA sequence elements termed peroxisome proliferator response elements (PPRE) (7-9).
We investigated PPARγ transcriptional activity by transient transfections of epithelial cells with the renilla luciferase and PPRE plamids. To evaluate if the new molecules have more efficacy than 5-ASA to stimulate PPARγ activation, we tested these molecules at a concentration of 1 mM. […] Cells were stimulated with the different molecules during 24 hours.
FIG. 2 represents all the results obtained for each molecule assessed in 2 or 3 experiments done in triplicate. Reproducibility between the different experiments is good and similar to data described in the literature.

| increase of the reporter gene activity (PPARγ activity) (PPARγ; 1 mM) [fold] | increase of the reporter gene activity (PPARγ activity) (PPARγ; 30 mM, positive control) [fold] | SMILES | effect on cell growth (in words) (HT-115 cells) | effect on cell growth (in words) (HT-29 cells) | effect on cell growth (in words) (DLD-1 cells) | inhibition at 500 µM (DLD-1 cells) [%] | inhibition at 1000 µM (DLD-1 cells) [%] | inhibition at 2500 µM (DLD-1 cells) [%] | inhibition at 5000 µM (DLD-1 cells) [%] | inhibition at 10000 µM (DLD-1 cells) [%] | significance of cell growth inhibition (in words) (DLD-1 cells; final concentration of 5 or 10 mM, cell line not specified) | effect on cell growth at high doses (in words) (DLD-1 cells) |
| --- | --- | --- | --- | --- | --- | --- | --- | --- | --- | --- | --- | --- |
| 4.8±0.71 | – | COC(Cc1ccc(N)cc1)C(=O)O (racemic) [Compound 34, (±)-2-methoxy-3-(4′-aminophenyl)-propionic acid] | – | – | – | 0 | 3.6 | 1.8 | 3.6 | 15.1 | – | slightly reduced the cell growth |
| 2.64±0.40 | – | COC(Cc1cccc(N)c1)C(=O)O (racemic) [Compound 35, (±)-2-methoxy-3-(3′-aminophenyl)-propionic acid] | – | – | no inhibition in cell growth | 0 | 3.2 | 1.6 | 6.4 | 4.8 | – | – |
| 3.4±0.97 | – | CCOC(Cc1cccc(N)c1)C(=O)O (racemic) [Compound 40, (±)-2-ethoxy-3-(3′-aminophenyl)-propanoic acid] | – | – | no inhibition in cell growth | 2 | 0 | 0 | 0 | 2.7 | – | – |

More lines, now with the values behind:

| SMILES | increase of the reporter gene activity (PPARγ activity) (PPARγ; 1 mM) [fold] | increase of the reporter gene activity (PPARγ activity) (PPARγ; 30 mM, positive control) [fold] | effect on cell growth (in words) (HT-115 cells) | effect on cell growth (in words) (HT-29 cells) | effect on cell growth (in words) (DLD-1 cells) | inhibition at 500 µM (DLD-1 cells) [%] | inhibition at 1000 µM (DLD-1 cells) [%] | inhibition at 2500 µM (DLD-1 cells) [%] | inhibition at 5000 µM (DLD-1 cells) [%] | inhibition at 10000 µM (DLD-1 cells) [%] | significance of cell growth inhibition (in words) (DLD-1 cells; final concentration of 5 or 10 mM, cell line not specified) | effect on cell growth at high doses (in words) (DLD-1 cells) |
| --- | --- | --- | --- | --- | --- | --- | --- | --- | --- | --- | --- | --- |
| Nc1cccc(CC(O)C(=O)O)c1 (racemic) [Compound 20, (±)-2-hydroxy-3-(3′-aminophenyl)-propanoic acid] | – | – | marked anti-proliferative effect in a dose-dependent fashion | marked anti-proliferative effect in a dose-dependent fashion | marked anti-proliferative effect in a dose-dependent fashion | 4.3 | 12.8 | 16.2 | 25.6 | 47 | significantly inhibit cell growth | – |
| CCOC(Cc1ccc(N)cc1)C(=O)O (racemic) [Compound 39, (±)-2-ethoxy 3-(4′-aminophenyl)-propionic acid] | 2.73±0.31 | – | – | – | – | 1.6 | 3.3 | 8.2 | 11.5 | 12.8 | – | slightly reduced the cell growth |
| Nc1ccc(O)c(C(=O)O)c1 [Compound 5-ASA, 5-amino salicylic acid, reference compound] | – | 2.8±0.7 | – | – | – | – | – | – | – | – | – | – |
